Broadly, the IC50 is the concentration at which inhibition is half-maximal.

The record followed here is patent US20260130925A1, “METHODS FOR TREATING CANCER” (Genesis Molecular AI, Inc., priority 2022, published 2026).

The target of one assay is PI3K H1047R (Homo sapiens, UniProt P42336, H1047R). The experiment in a line: PI3K H1047R ADP-Glo (PI/PS). Also on record: PI3K H1047R ADP-Glo (PI/PS) IC50: H1047R Selectivity: reference not given here. The assay is classed as biochemical. The settings on record: for IC50: PI/PS substrate. Background: ADP-Glo first removes unused ATP, then detects ADP through luciferase.
The target in assay [1] is T1, PI3Kα H1047R in T47D cells (Homo sapiens, UniProt P42336, H1047R).
T1 construct: endogenous in cells; host or cells: T47D
Description: PI3Kα cellular assay: T47D pAKT S473 HTRF. Particulars: for T47D pAKT S473 HTRF IC50 (H1047R): T47D (H1047R) selectivity over SKBR3 (WT): T47D (H1047R) versus SKBR3 (WT) cells; for IC50: T47D cells (H1047R), serum starved, 1 hr compound, 20 ng/ml EGF 10 min. It is filed as cell-based. The method, then:
PI3Kα cellular assay experimental procedure: SKBR3 or T47D cells are seeded in DMEM containing 10% FBS at 25 k cells/well into 96-well cell culture format. Cells are incubated overnight at 37° C. in a 5% CO2 incubator and the following day cell media is aspirated, adherent cells are washed 1× with room temperature PBS prior to serum-free media application. Cells are returned to 37° C. 5% CO2 incubator and incubated a further 16 hrs. Compounds are added to serum starved adherent cells with a top dose of 10,000 nM and 3× multiple dose reductions for a minimum dose of 0.5 nM diluted in DMSO. Cell/compound incubation continues for 1 hr in a 37° C., 5% CO2 incubator prior to 10 minute PIK3CA stimulation with 20 ng/ml EGF. Cells treated with 0.1% DMSO and 20 ng/mL EGF are employed as negative control, cells treated with 10 uM Alpelisib and 20 ng/mL EGF are employed as a positive control. After 10 mins, plates are removed from incubator and cells are lysed with buffer and shaking 45 minutes. 20 μL of lysate is transferred to an opti-384 plate and 2.5 μl of Phospho-AKT d2 antibody with 2.5 μl of Phospho-AKT Eu Cryptate solution in the detection buffer are added to each well. 384 well plate is left overnight at room temperature before reading HTRF on an Envision plate reader.
(In TR-FRET formats the signal depends on donor and acceptor labels being close together.)

PI3K H1047R, sequence (P42336 whole entry H1047R): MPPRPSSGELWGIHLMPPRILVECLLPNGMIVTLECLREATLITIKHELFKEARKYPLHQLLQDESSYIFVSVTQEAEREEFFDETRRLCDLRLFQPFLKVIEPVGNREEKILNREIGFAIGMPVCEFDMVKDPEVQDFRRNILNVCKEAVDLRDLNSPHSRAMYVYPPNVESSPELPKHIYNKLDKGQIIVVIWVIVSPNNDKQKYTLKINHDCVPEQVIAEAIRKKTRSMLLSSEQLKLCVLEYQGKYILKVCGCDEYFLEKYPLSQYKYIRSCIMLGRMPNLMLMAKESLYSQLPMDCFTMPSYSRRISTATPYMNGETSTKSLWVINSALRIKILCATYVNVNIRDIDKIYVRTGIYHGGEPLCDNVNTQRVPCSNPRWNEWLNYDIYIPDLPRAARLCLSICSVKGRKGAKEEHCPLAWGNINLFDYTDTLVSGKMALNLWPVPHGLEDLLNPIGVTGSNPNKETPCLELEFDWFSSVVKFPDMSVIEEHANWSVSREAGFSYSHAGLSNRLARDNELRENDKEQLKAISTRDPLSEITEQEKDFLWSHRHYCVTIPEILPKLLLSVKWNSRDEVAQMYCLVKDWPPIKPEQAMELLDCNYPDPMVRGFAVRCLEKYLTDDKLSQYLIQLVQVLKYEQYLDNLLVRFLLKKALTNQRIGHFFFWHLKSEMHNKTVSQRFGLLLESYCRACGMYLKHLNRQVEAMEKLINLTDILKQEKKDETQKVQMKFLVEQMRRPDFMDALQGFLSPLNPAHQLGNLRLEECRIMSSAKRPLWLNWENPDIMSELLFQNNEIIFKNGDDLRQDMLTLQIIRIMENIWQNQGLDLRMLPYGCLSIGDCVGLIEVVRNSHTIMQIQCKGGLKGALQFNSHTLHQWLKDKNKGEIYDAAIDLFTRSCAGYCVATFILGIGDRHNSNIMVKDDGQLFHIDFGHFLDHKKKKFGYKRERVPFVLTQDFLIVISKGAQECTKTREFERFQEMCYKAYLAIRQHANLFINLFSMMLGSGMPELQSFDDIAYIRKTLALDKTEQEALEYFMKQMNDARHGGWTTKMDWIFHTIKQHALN
PI3K H1047R, sequence (P27986 whole entry partner): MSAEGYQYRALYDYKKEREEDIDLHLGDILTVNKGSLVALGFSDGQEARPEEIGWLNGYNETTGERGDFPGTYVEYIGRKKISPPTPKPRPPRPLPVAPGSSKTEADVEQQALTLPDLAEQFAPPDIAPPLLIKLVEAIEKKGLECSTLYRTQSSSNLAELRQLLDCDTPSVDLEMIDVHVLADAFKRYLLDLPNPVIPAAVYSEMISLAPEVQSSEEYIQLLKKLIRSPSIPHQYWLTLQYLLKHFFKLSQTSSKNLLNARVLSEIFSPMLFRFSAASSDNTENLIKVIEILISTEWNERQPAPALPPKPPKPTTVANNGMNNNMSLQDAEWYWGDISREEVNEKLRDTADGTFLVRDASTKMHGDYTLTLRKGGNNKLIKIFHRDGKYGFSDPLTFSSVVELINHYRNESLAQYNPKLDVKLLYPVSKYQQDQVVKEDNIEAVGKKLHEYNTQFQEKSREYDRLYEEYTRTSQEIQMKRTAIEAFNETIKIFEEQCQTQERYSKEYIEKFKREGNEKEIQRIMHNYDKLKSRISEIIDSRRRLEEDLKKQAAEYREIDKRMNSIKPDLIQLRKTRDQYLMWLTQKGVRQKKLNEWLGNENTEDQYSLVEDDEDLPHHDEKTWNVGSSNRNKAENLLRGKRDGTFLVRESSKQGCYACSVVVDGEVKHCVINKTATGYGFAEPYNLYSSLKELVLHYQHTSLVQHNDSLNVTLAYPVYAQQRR
T1 sequence (P42336 whole entry H1047R): as the sequence (P42336 whole entry H1047R) above
T1 sequence (P27986 whole entry partner): as the sequence (P27986 whole entry partner) above

With `Cc1cc([C@@H](C)Nc2ccccc2C(=O)O)c2nc(N3CCC(C)(C)CC3)ncc2c1` [Compound 8], on PI3K H1047R, the “PI3K H1047R ADP-Glo (PI/PS) IC50: H1047R Selectivity” value was “B (B denotes 20-fold≥value>5-fold)” and the IC50 is less than 1000 nM. In assay [1], the “T47D pAKT S473 HTRF IC50 (H1047R): T47D (H1047R) selectivity over SKBR3 (WT)” value was “A (A denotes >20-fold)” and the IC50 is less than 750 nM.

Consider `Cc1cc(C(C)Nc2ccccc2C(=O)O)c2cc(OC3CCOCC3)ncc2c1` (centres unmarked) [Compound 74], for which, at PI3K H1047R, the “PI3K H1047R ADP-Glo (PI/PS) IC50: H1047R Selectivity” value is listed as “A (A denotes >20-fold)” and the IC50 is less than 1000 nM. Also, in assay [1], the “T47D pAKT S473 HTRF IC50 (H1047R): T47D (H1047R) selectivity over SKBR3 (WT)” value is given as “A (A denotes >20-fold)” and the IC50 is less than 750 nM.

Turning to `Cc1cc([C@H](C)Nc2ccccc2C(=O)O)c2nc(N3CCC(C)(C)CC3)nc(C#N)c2c1` [Compound 60], the half-inhibitory concentration (IC50) at PI3K H1047R is no less than 10000 nM. Also, in assay [1], the “T47D pAKT S473 HTRF IC50 (H1047R): T47D (H1047R) selectivity over SKBR3 (WT)” value was “C (C denotes ≤5-fold)” and the IC50 was no less than 2000 nM.

Take `Cc1cc(C(C)Nc2ccccc2C(=O)O)c2nc(-c3ccc4c(c3)c(C)nn4C)n(C)c(=O)c2c1` (centres unmarked) [Compound 40]: on PI3K H1047R, the “PI3K H1047R ADP-Glo (PI/PS) IC50: H1047R Selectivity” value is “A (A denotes >20-fold)” and the IC50 is less than 1000 nM. Besides, in assay [1], the “T47D pAKT S473 HTRF IC50 (H1047R): T47D (H1047R) selectivity over SKBR3 (WT)” value is on record as “A (A denotes >20-fold)” and the IC50 was less than 750 nM.

As to `Cc1cc(C(C)Nc2ccccc2C(=O)O)c2cc(-c3ccc(F)cc3)n(C)c(=O)c2c1` (centres unmarked) [Compound 77], at PI3K H1047R, the “PI3K H1047R ADP-Glo (PI/PS) IC50: H1047R Selectivity” value was “A (A denotes >20-fold)” and the IC50 was less than 1000 nM. Also, in assay [1], the “T47D pAKT S473 HTRF IC50 (H1047R): T47D (H1047R) selectivity over SKBR3 (WT)” value is “A (A denotes >20-fold)” and the 50% inhibitory concentration (IC50) was less than 750 nM.

As to `Cc1cc(C(C)Nc2ccccc2C(=O)O)c2cc(-c3ccc4c(c3)c(C)nn4C)ncc2c1` (centres unmarked) [Compound 88], at PI3K H1047R, the “PI3K H1047R ADP-Glo (PI/PS) IC50: H1047R Selectivity” value is “A (A denotes >20-fold)” and the IC50 is less than 1000 nM. Moreover, in assay [1], the “T47D pAKT S473 HTRF IC50 (H1047R): T47D (H1047R) selectivity over SKBR3 (WT)” value is recorded as “A (A denotes >20-fold)” and the IC50 is less than 750 nM.

Turning to `Cc1cc([C@@H](C)Nc2ccccc2C(=O)O)c2nc(-c3ccc(F)cc3)n(C)c(=O)c2c1` (single isomer, unassigned) [Compound 32], at PI3K H1047R, the “PI3K H1047R ADP-Glo (PI/PS) IC50: H1047R Selectivity” value was “A (A denotes >20-fold)” and the IC50 was less than 1000 nM. Further, in assay [1], the “T47D pAKT S473 HTRF IC50 (H1047R): T47D (H1047R) selectivity over SKBR3 (WT)” value was “A (A denotes >20-fold)” and the IC50 was less than 750 nM.

Consider `Cc1cc([C@H](C)Nc2ccccc2C(=O)O)c2cc(-c3ccc4c(c3)c(C)nn4C)n(C)c(=O)c2c1` [Compound 85], for which, at PI3K H1047R, the “PI3K H1047R ADP-Glo (PI/PS) IC50: H1047R Selectivity” value is on record as “C (C denotes ≤5-fold)” and the IC50 lay in the range of 1000 to 10000 nM. For the same compound, in assay [1], the “T47D pAKT S473 HTRF IC50 (H1047R): T47D (H1047R) selectivity over SKBR3 (WT)” value was “B (B denotes 20-fold≥value>5-fold)” and the IC50 is no less than 2000 nM.

`Cc1cc([C@@H](C)Nc2ccccc2C(=O)O)c2cc(-c3ccc4c(c3)c(C)nn4C)ncc2c1` [Compound 84]: at PI3K H1047R, the “PI3K H1047R ADP-Glo (PI/PS) IC50: H1047R Selectivity” value is reported as “A (A denotes >20-fold)” and the IC50 was less than 1000 nM. In assay [1], the “T47D pAKT S473 HTRF IC50 (H1047R): T47D (H1047R) selectivity over SKBR3 (WT)” value is “A (A denotes >20-fold)” and the IC50 is less than 750 nM.
